In patent US12240839B2, “Cyclobutyl dihydroquinoline sulfonamide compounds” (AMGEN INC., priority 2020, dated 2025):

Target: Human Nav1.7 (Homo sapiens (Human), UniProt Q15858)
Assay: IonWorks Barracuda (IWB) automated patch clamp assay
Type: cell-based
Settings: human Nav1.7 in HEK cells, population patch-clamp, state- and use-dependent voltage protocol; read-out: hNaV1.7 IWB-U IC50
Procedure: IonWorks Barracuda (IWB) Automated Patch Clamp Assay (Same Protocol for Both Human and Mouse)
Human Nav1.7 currents were recorded in population patch-clamp mode with the IWB automated electrophysiology system (Molecular Devices, LLC, Sunnyvale, CA). Spiking HEK cells (without Kir2.1 transfection) were cultured and prepared for recordings as previously described for IonWorks Quattro testing^1. The external solution consisted of the following (in mM): NaCl 140, KCl 5, CaCl2 2, MgCl2 1, HEPES 10, and glucose 11, pH 7.4, with N-methyl-D-glucamine at 320 mOsmol. […] From a holding potential of −110 mV, currents were elicited by a train of 26 depolarizations of 150 ms duration to −20 mV at a frequency of 5 Hz. Cells were then clamped to −20 mV for a period of 4 minutes in the presence of a single concentration of test compound. Following this compound incubation period, cells were clamped to −110 mV for three seconds to recover unbound channels and put through the same 26 pulse voltage protocol as above. Peak inward current during the 26th pulse to −20 mV in the presence of compound was divided by the peak inward current evoked by the 26th pulse to −20 mV in the absence of compound to determine percent inhibition. Concentration-response curves of percent inhibition as a function of concentration were generated to calculate IC50 values as described in Kornecook, T. J.; Yin, R.; Altmann, S.; et al. Pharmacologic Characterization of AMG8379, a Potent and Selective Small Molecule Sulfonamide Antagonist of the Voltage-Gated Sodium Channel NaV1. 7.
The potency of the compounds of the present invention were evaluated on human Nav1.7 channels using the above described IonWorks Barracuda automated electrophysiology platform that evaluates the ability of compounds to block sodium conductance through Nav1.7 channels. A voltage-protocol that prosecutes both state-dependent as well as use-dependent inhibition was used as these modes of action are thought to be more relevant for the native state of Nav1.7 channels in pain sensing neurons in vivo.

Sequence of Human Nav1.7 (Q15858 whole entry): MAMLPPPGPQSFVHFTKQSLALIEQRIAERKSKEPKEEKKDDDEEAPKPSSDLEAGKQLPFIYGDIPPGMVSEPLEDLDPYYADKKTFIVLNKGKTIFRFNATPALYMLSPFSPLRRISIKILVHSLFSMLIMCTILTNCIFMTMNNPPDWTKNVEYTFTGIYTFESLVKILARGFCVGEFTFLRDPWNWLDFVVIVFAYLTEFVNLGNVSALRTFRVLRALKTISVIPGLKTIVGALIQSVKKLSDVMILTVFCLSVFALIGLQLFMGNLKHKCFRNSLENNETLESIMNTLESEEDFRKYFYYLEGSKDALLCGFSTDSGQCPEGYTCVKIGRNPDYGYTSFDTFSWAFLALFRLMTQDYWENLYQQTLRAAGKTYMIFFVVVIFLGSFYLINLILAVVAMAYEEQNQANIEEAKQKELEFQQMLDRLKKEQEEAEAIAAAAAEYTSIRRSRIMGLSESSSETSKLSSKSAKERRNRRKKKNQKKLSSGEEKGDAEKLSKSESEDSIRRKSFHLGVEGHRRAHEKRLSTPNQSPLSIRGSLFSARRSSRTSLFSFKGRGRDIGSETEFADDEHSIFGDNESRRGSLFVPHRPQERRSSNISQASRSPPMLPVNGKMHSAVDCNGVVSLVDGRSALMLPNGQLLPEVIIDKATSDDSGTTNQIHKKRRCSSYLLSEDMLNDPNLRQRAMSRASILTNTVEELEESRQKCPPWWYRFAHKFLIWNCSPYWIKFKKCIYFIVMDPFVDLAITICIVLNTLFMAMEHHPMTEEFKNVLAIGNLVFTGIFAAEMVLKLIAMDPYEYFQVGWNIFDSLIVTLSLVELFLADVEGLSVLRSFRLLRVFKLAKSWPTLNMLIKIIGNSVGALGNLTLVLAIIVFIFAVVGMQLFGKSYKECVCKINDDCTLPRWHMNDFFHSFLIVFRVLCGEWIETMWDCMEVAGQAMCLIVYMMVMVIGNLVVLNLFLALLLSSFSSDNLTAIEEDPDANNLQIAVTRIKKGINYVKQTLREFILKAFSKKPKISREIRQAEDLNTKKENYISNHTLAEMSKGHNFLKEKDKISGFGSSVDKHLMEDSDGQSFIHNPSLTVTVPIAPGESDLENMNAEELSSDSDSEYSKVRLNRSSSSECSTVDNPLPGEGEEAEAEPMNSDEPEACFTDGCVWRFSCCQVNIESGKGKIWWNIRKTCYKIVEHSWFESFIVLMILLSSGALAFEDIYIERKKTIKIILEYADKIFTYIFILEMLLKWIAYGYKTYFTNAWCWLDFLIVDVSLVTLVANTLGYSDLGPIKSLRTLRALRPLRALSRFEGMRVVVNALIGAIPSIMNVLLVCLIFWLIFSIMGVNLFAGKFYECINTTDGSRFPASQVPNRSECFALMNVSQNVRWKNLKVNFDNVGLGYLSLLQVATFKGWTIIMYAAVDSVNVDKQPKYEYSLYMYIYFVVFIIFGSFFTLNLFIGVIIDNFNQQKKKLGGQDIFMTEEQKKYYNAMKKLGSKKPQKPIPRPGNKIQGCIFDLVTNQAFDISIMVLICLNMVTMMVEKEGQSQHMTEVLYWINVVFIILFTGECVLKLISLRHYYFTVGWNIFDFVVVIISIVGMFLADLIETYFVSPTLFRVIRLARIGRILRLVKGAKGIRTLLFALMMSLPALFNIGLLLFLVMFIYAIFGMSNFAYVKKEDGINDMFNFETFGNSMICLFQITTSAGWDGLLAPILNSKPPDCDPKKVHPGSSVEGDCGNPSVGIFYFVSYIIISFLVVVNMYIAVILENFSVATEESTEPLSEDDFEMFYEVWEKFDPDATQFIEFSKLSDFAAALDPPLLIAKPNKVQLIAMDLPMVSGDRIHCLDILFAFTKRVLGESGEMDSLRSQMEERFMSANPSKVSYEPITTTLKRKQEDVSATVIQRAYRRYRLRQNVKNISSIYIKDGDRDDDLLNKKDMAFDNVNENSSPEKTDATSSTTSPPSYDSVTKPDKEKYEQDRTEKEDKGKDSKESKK

Row | Structure (SMILES) | IC50
1 | COc1cc(C2CC(C(F)(F)F)C2)c(F)cc1-n1c(=O)ccc2cc(S(=O)(=O)Nc3ccon3)ccc21 (atropisomer, axis not shown; (P)) [Example 6, cis-(P)-1-(5-fluoro-2-methoxy-4-(3-(trifluoromethyl)cyclobutyl)phenyl)-N-(isoxazol-3-yl)-2-oxo-1,2-dihydroquinoline-6-sulfonamide] | 11 nM
2 | COc1cc(C2CC(C(F)(F)F)C2)c(Cl)cc1-n1c(=O)ccc2cc(S(=O)(=O)Nc3ccon3)ccc21 (atropisomer, axis not shown; (P)) [Example 12, cis-(P)-1-(5-chloro-2-methoxy-4-((1S,3S)-3-(trifluoromethyl)cyclobutyl)phenyl)-N-(isoxazol-3-yl)-2-oxo-1,2-dihydroquinoline-6-sulfonamide] | 7 nM
3 | COc1cc([C@H]2C[C@H](C(F)(F)F)C2)c(C)cc1-n1c(=O)ccc2cc(S(=O)(=O)Nc3ncccn3)ccc21 (atropisomer, axis not shown; (P)) [Example 37, trans-(P)-1-(2-methoxy-5-methyl-4-(3-(trifluoromethyl)cyclobutyl)phenyl)-2-oxo-N-(pyrimidin-2-yl)-1,2-dihydroquinoline-6-sulfonamide] | 62 nM
4 | COc1cc(C2CC(C(C)(C)C)C2)c(F)cc1-n1c(=O)ccc2cc(S(=O)(=O)Nc3ccon3)ccc21 (racemic) [Example 2, 1-(4-(3-(tert-butyl)cyclobutyl)-5-fluoro-2-methoxyphenyl)-N-(isoxazol-3-yl)-2-oxo-1,2-dihydroquinoline-6-sulfonamide] | 25 nM
5 | COc1cc([C@H]2C[C@H](C(F)(F)F)C2)c(F)cc1-n1c(=O)ccc2cc(S(=O)(=O)Nc3ccon3)ccc21 (single isomer, unassigned) [Example 7, trans-(P)-1-(5-fluoro-2-methoxy-4-(3-(trifluoromethyl)cyclobutyl)phenyl)-N-(isoxazol-3-yl)-2-oxo-1,2-dihydroquinoline-6-sulfonamide] | 7 nM
6 | COc1cc([C@H]2C[C@H](C(F)(F)F)C2)c(Cl)cc1-n1c(=O)ccc2cc(S(=O)(=O)Nc3ccon3)ccc21 (single isomer, unassigned) [Example 13] | 6 nM
7 | COc1cc(C2CC(OC(F)(F)F)C2)c(F)cc1-n1c(=O)ccc2cc(S(=O)(=O)Nc3ccon3)ccc21 (single isomer, unassigned) [Example 44, cis-(P)-1-(5-fluoro-2-methoxy-4-(3-(trifluoromethoxy)cyclobutyl)phenyl)-N-(isoxazol-3-yl)-2-oxo-1,2-dihydroquinoline-6-sulfonamide] | 7 nM

Tested on: CYP3A4
Assay: not given
Settings: hepatocytes

Row | Structure (SMILES) | Hu CYP3A4 mRNA Induction (10 uM POC)
8 | COc1cc([C@H]2C[C@@](F)(C(F)(F)F)C2)c(F)cc1-n1c(=O)ccc2cc(S(=O)(=O)Nc3ccon3)ccc21 (atropisomer, axis not shown; (P)) [Example 8, trans-(P)-1-(5-fluoro-4-(3-fluoro-3-(trifluoromethyl)cyclobutyl)-2-methoxyphenyl)-N-(isoxazol-3-yl)-2-oxo-1,2-dihydroquinoline-6-sulfonamide] | 10.51%

Tested on: CYP3A4
Assay: Human CYP3A4 induction assay (mRNA, cryopreserved human hepatocytes)
Settings: 10 uM test compound, 72 hours, percent of control (rifampin positive control)
Procedure: Human CYP3A4 Induction Assay
Cryopreserved human hepatocytes were seeded in 96-well collagen coated plates at 70,000 cells per well in hepatocyte plating media (HPM, final concentrations: 1× Dulbecco's Modified Eagle's Medium, 0.1 μM dexamethasone, 10% fetal bovine serum, 1×ITS, 1×PSG) followed by incubation at 37° C. under 5% CO2 and 90% relative humidity for 2 days to allow hepatocytes to form a confluent layer. On Day 3, hepatocytes were treated with either test compound or rifampin (20 μM, positive control for CYP3A induction) prepared in hepatocyte incubation media ((HIM, final concentrations: 1× William's Medium E, 0.1 μM dexamethasone, 1×ITS, 1×PSG). Treatment was performed for 72 hours with either 2 concentrations (2 μM or 10 μM) or a range of concentrations (0.001 μM to 100 μM) of the test compound to obtain full dose-response curve. Fresh media containing the relevant concentrations of the test compound was replaced every day until the samples were processed. After 72 hours of incubation, samples were processed for mRNA analysis using bDNA technology using manufacturer's instructions (Affymetrix, Fremont, CA). Cell viability was tested at the end of the experiment using MTT assay kit (Roche Diagnostics, Basel, Switzerland). Data was analyzed and presented as percent of control (POC) and Emax and EC50 obtained when appropriate according to guidance from Center for Drug Evaluation and Research (CDER), 2006, Guidance for Industry, Drug Interaction Studies—Study Design, Data Analysis, and Implications for Dosing and Labeling.

Row | Structure (SMILES) | Hu CYP3A4 mRNA Induction (10 uM POC)
9 | COc1cc([C@H]2C[C@H](C(F)(F)F)C2)c(F)cc1-n1c(=O)ccc2cc(S(=O)(=O)Nc3ccon3)c(F)cc21 (atropisomer, axis not shown; (P)) [Example 40, (P)-7-fluoro-1-(5-fluoro-2-methoxy-4-((1R,3R)-3-(trifluoromethyl)cyclobutyl)phenyl)-N-(isoxazol-3-yl)-2-oxo-1,2-dihydroquinoline-6-sulfonamide] | 74.43%
10 | COc1cc(C2CC(F)(F)C2)c(F)cc1-n1c(=O)ccc2cc(S(=O)(=O)Nc3ccon3)c(F)cc21 (atropisomer, axis not shown; (P)) [Example 41, (P)-1-(4-(3,3-difluorocyclobutyl)-5-fluoro-2-methoxyphenyl)-7-fluoro-N-(isoxazol-3-yl)-2-oxo-1,2-dihydroquinoline-6-sulfonamide] | 52.8%
11 | COc1cc(C23CC(C(F)(F)F)(C2)C3)c(F)cc1-n1c(=O)ccc2cc(S(=O)(=O)Nc3ccon3)ccc21 (atropisomer, axis not shown; (P)) [Example 42, (P)-1-(5-fluoro-2-methoxy-4-(3-(trifluoromethyl)bicyclo[1.1.1]pentan-1-yl)phenyl)-N-(isoxazol-3-yl)-2-oxo-1,2-dihydroquinoline-6-sulfonamide] | 19.25%
12 | COc1cc([C@H]2C[C@H](C(F)(F)F)C2)c(F)cc1-n1c(=O)ccc2cc(S(=O)(=O)Nc3ncco3)ccc21 (atropisomer, axis not shown; (P)) [Example 43, (P)-1-(5-fluoro-2-methoxy-4-(3-(trifluoromethyl)cyclobutyl)phenyl)-N-(oxazol-2-yl)-2-oxo-1,2-dihydroquinoline-6-sulfonamide] | 68.28%
13 | COc1cc([C@H]2C[C@H](C(F)(F)F)C2)c(F)cc1-n1c(=O)ccc2c(F)c(S(=O)(=O)Nc3ccon3)ccc21 (atropisomer, axis not shown; (P)) [Example 46, trans-(P)-5-fluoro-1-(5-fluoro-2-methoxy-4-(3-(trifluoromethyl)cyclobutyl)phenyl)-N-(isoxazol-3-yl)-2-oxo-1,2-dihydroquinoline-6-sulfonamide] | 6.6%
14 | COc1cc(C23CC(C(F)(F)F)(C2)C3)c(F)cc1-n1c(=O)ccc2cc(S(=O)(=O)Nc3ncccn3)ccc21 (atropisomer, axis not shown; (P)) [Example 47, (P)-1-(5-fluoro-2-methoxy-4-(3-(trifluoromethyl)bicyclo[1.1.1]pentan-1-yl)phenyl)-2-oxo-N-(pyrimidin-2-yl)-1,2-dihydroquinoline-6-sulfonamide] | 19.64%
15 | COc1cc(C2CC(F)(F)C2)c(Cl)cc1-n1c(=O)ccc2cc(S(=O)(=O)Nc3ccon3)ccc21 (atropisomer, axis not shown; (P)) [Example 48, (P)-1-(5-chloro-4-(3,3-difluorocyclobutyl)-2-methoxyphenyl)-N-(isoxazol-3-yl)-2-oxo-1,2-dihydroquinoline-6-sulfonamide] | 110.2%
16 | COc1cc([C@H]2C[C@H](C(F)(F)F)C2)c(Cl)cc1-n1c(=O)ccc2cc(S(=O)(=O)Nc3ncco3)ccc21 (atropisomer, axis not shown; (P)) [Example 49, trans (P)-1-(5-chloro-2-methoxy-4-((1R,3R)-3-(trifluoromethyl)cyclobutyl)phenyl)-N-(oxazol-2-yl)-2-oxo-1,2-dihydroquinoline-6-sulfonamide] | 64.94%
17 | COc1cc([C@H]2C[C@@H](C(F)(F)F)C2)c(F)cc1-n1c(=O)ccc2cc(S(=O)(=O)Nc3ccon3)ccc21 (single isomer, unassigned) [Example 6, cis-(P)-1-(5-fluoro-2-methoxy-4-(3-(trifluoromethyl)cyclobutyl)phenyl)-N-(isoxazol-3-yl)-2-oxo-1,2-dihydroquinoline-6-sulfonamide] | 83.89%
18 | COc1cc([C@H]2C[C@H](C(F)(F)F)C2)c(F)cc1-n1c(=O)ccc2cc(S(=O)(=O)Nc3ccon3)ccc21 (single isomer, unassigned) [Example 7, trans-(P)-1-(5-fluoro-2-methoxy-4-(3-(trifluoromethyl)cyclobutyl)phenyl)-N-(isoxazol-3-yl)-2-oxo-1,2-dihydroquinoline-6-sulfonamide] | 16.35%
19 | COc1cc([C@H]2C[C@H](C(F)(F)F)C2)c(Cl)cc1-n1c(=O)ccc2cc(S(=O)(=O)Nc3ccon3)ccc21 (single isomer, unassigned) [Example 12] | 68.98%
20 | COc1cc([C@H]2C[C@H](C(F)(F)F)C2)c(Cl)cc1-n1c(=O)ccc2cc(S(=O)(=O)Nc3ccon3)ccc21 (single isomer, unassigned) [Example 13] | 46.85%
21 | COc1cc([C@H]2C[C@H](OC(F)(F)F)C2)c(F)cc1-n1c(=O)ccc2cc(S(=O)(=O)Nc3ccon3)ccc21 (single isomer, unassigned) [Example 45, trans-(P)-1-(5-fluoro-2-methoxy-4-(3-(trifluoromethoxy)cyclobutyl)phenyl)-N-(isoxazol-3-yl)-2-oxo-1,2-dihydroquinoline-6-sulfonamide] | 36.685%
22 | COc1cc(C2CC2)c(F)cc1-n1c(=O)ccc2cc(S(=O)(=O)Nc3ccon3)ccc21 [Compound X, 1-(4-cyclopropyl-5-fluoro-2-methoxyphenyl)-N-(isoxazol-3-yl)-2-oxo-1,2-dihydroquinoline-6-sulfonamide, reference compound] | 84.31%
